Experimental data published in ChEMBL document CHEMBL4507300 (2021).

Assays:
Settings in all cases: Compound concentration 1000.0 nM
[1] = biological target: ALK tyrosine kinase receptor (Homo sapiens) (UniProt Q9UM73)
[2] = biological target: Receptor-interacting serine/threonine-protein kinase 4 (Homo sapiens) (UniProt P57078)
[3] = biological target: STE20-like serine/threonine-protein kinase (Homo sapiens) (UniProt Q9H2G2)
[4] = test system: eIF-2-alpha kinase GCN2 (Homo sapiens), Q9P2K8 [S808G]
[5] = biological target: Atypical kinase COQ8A, mitochondrial (Homo sapiens) (UniProt Q8NI60)
Atypical kinase COQ8A, mitochondrial (Homo sapiens), sequence (Q8NI60 163-647 limits assumed): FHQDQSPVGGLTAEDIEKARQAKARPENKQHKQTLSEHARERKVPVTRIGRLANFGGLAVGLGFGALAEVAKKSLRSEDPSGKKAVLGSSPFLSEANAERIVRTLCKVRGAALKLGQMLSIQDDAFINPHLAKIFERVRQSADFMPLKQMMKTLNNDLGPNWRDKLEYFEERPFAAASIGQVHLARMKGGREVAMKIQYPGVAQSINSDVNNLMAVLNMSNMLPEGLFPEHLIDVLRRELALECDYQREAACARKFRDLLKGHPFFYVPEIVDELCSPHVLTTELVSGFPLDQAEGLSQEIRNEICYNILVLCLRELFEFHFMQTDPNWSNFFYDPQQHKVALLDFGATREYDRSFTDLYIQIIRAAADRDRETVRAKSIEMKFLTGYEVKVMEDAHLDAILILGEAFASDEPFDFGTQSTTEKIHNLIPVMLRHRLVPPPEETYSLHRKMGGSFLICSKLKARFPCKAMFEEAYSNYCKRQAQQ

[6] = biological target: Tyrosine-protein kinase JAK1 (Homo sapiens) (UniProt P23458)
[7] = biological target: MAP kinase-interacting serine/threonine-protein kinase 1 (Homo sapiens) (UniProt Q9BUB5)
[8] = biological target: Tyrosine-protein kinase ITK/TSK (Homo sapiens) (UniProt Q08881)
Tyrosine-protein kinase ITK/TSK (Homo sapiens), sequence (Q08881 whole entry): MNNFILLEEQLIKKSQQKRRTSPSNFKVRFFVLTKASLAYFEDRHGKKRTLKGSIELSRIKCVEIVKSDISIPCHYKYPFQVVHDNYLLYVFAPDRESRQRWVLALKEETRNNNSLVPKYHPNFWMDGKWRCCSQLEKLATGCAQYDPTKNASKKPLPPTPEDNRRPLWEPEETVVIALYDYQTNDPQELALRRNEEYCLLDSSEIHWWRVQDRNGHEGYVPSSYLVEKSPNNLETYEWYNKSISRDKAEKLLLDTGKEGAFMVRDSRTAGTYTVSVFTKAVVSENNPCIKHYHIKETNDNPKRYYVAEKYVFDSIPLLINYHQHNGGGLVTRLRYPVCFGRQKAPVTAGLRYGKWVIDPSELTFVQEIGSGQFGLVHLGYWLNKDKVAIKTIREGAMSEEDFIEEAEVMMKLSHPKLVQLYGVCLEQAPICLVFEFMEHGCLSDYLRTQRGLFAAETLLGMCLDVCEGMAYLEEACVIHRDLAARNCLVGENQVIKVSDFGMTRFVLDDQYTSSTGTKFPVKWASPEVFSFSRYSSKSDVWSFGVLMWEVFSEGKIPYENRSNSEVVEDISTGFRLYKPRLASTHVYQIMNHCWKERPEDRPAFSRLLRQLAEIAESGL

[9] = test system: Leucine-rich repeat serine/threonine-protein kinase 2 (Homo sapiens), Q5S007 [G2019S]
[10] = biological target: Ephrin type-B receptor 1 (Homo sapiens) (UniProt P54762)
[11] = biological target: Misshapen-like kinase 1 (Homo sapiens) (UniProt Q8N4C8)
[12] = biological target: Proto-oncogene tyrosine-protein kinase ROS (Homo sapiens) (UniProt P08922)
[13] = biological target: Phosphorylase b kinase regulatory subunit alpha, liver isoform (Homo sapiens) (UniProt P46019)
[14] = biological target: Ephrin type-A receptor 2 (Homo sapiens) (UniProt P29317)
[15] = test system: Phosphatidylinositol 4,5-bisphosphate 3-kinase catalytic subunit alpha isoform (Homo sapiens), P42336 [Q546K]
[16] = biological target: Casein kinase I isoform gamma-2 (Homo sapiens) (UniProt P78368)
[17] = biological target: Cyclin-dependent kinase-like 1 (Homo sapiens) (UniProt Q00532)
Cyclin-dependent kinase-like 1 (Homo sapiens), sequence (Q00532 whole entry): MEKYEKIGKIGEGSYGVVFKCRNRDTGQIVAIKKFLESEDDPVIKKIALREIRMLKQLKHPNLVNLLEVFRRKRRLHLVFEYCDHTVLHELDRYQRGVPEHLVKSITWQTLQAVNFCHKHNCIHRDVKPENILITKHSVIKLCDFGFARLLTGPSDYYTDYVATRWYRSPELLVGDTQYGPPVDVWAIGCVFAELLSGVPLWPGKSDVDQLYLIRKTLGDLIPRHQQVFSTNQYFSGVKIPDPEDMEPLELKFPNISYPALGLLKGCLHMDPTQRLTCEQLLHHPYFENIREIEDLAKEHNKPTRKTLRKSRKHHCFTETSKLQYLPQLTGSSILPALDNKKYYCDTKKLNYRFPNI

[18] = biological target: Cyclin-dependent kinase 15 (Homo sapiens) (UniProt Q96Q40)
[19] = test system: Proto-oncogene tyrosine-protein kinase receptor Ret (Homo sapiens), P07949 [M918T]
[20] = test system: ALK tyrosine kinase receptor (Homo sapiens), Q9UM73 [L1196M]
[21] = biological target: MAP kinase-activated protein kinase 2 (Homo sapiens) (UniProt P49137)
[22] = biological target: Tyrosine-protein kinase receptor Tie-1 (Homo sapiens) (UniProt P35590)
[23] = biological target: Cyclin-dependent kinase 8 (Homo sapiens) (UniProt P49336)
[24] = biological target: Cyclin-dependent kinase 4 (Homo sapiens) (UniProt P11802)
Cyclin-dependent kinase 4 (Homo sapiens), sequence (P11802 whole entry): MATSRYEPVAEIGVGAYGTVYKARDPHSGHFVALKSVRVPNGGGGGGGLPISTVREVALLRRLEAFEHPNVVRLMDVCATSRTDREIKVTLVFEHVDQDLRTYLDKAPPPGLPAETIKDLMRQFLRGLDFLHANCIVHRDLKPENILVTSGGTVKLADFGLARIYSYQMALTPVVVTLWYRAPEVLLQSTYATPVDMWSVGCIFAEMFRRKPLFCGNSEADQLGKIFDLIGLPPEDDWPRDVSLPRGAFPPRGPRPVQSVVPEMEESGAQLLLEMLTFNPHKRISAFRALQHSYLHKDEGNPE

[25] = biological target: Serine/threonine-protein kinase PLK2 (Homo sapiens) (UniProt Q9NYY3)
[26] = biological target: Inhibitor of nuclear factor kappa-B kinase subunit beta (Homo sapiens) (UniProt O14920)
[27] = biological target: Ribosomal protein S6 kinase alpha-5 (Homo sapiens) (UniProt O75582)
Ribosomal protein S6 kinase alpha-5 (Homo sapiens), sequence (O75582 whole entry, looked up): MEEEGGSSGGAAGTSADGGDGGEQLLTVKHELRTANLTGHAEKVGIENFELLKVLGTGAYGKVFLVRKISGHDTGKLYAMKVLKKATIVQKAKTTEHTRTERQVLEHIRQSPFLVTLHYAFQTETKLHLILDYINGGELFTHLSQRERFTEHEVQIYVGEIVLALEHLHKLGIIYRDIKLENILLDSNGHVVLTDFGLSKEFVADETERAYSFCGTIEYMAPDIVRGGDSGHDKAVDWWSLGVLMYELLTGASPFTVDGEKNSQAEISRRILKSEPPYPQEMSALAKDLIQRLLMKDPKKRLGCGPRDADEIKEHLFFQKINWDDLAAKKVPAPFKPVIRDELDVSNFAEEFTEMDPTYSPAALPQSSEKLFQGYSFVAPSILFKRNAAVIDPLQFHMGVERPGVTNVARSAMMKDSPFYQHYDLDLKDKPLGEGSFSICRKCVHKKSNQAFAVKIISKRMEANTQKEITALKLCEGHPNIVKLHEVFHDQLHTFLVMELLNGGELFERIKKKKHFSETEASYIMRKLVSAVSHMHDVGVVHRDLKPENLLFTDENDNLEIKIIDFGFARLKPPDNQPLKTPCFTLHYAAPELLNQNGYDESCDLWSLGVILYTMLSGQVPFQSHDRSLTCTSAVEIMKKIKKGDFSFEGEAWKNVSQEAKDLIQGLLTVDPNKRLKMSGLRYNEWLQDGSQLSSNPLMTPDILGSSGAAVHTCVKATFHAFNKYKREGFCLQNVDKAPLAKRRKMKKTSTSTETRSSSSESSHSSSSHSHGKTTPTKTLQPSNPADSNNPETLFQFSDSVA

[28] = biological target: Protein kinase C delta type (Homo sapiens) (UniProt Q05655)
[29] = biological target: Serine/threonine-protein kinase PAK 5 (Homo sapiens) (UniProt Q9P286)
[30] = biological target: Death-associated protein kinase 2 (Homo sapiens) (UniProt Q9UIK4)
[31] = biological target: Tyrosine-protein kinase Fer (Homo sapiens) (UniProt P16591)
[32] = biological target: Serine/threonine-protein kinase MARK2 (Homo sapiens) (UniProt Q7KZI7)
[33] = biological target: Eukaryotic translation initiation factor 2-alpha kinase 1 (Homo sapiens) (UniProt Q9BQI3)
[34] = biological target: Muscle, skeletal receptor tyrosine-protein kinase (Homo sapiens) (UniProt O15146)
Muscle, skeletal receptor tyrosine-protein kinase (Homo sapiens), sequence (O15146 whole entry): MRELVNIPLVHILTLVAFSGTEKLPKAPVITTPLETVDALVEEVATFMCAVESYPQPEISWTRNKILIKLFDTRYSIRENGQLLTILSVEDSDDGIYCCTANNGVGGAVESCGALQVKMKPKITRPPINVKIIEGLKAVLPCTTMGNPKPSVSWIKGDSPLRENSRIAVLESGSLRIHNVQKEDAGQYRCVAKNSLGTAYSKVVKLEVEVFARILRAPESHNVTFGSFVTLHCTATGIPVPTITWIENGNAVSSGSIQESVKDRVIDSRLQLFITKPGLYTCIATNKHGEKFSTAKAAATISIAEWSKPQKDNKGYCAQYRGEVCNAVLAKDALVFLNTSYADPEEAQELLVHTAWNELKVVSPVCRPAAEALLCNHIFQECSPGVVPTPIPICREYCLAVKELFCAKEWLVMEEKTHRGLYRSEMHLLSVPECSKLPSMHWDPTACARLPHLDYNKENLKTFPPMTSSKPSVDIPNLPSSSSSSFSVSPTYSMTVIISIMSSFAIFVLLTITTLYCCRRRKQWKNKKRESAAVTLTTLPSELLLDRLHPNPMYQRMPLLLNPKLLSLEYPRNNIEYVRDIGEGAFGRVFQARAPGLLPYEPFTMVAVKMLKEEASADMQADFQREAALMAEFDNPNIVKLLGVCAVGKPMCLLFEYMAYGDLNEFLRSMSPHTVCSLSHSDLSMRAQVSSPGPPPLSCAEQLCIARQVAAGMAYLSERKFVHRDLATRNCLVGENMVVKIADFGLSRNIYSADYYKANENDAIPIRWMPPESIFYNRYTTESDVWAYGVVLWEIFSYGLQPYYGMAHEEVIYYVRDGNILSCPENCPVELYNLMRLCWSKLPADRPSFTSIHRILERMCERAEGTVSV

[35] = biological target: Dual specificity tyrosine-phosphorylation-regulated kinase 1A (Homo sapiens) (UniProt Q13627)
[36] = biological target: Serine/threonine-protein kinase TNNI3K (Homo sapiens) (UniProt Q59H18)
Serine/threonine-protein kinase TNNI3K (Homo sapiens), sequence (Q59H18 whole entry): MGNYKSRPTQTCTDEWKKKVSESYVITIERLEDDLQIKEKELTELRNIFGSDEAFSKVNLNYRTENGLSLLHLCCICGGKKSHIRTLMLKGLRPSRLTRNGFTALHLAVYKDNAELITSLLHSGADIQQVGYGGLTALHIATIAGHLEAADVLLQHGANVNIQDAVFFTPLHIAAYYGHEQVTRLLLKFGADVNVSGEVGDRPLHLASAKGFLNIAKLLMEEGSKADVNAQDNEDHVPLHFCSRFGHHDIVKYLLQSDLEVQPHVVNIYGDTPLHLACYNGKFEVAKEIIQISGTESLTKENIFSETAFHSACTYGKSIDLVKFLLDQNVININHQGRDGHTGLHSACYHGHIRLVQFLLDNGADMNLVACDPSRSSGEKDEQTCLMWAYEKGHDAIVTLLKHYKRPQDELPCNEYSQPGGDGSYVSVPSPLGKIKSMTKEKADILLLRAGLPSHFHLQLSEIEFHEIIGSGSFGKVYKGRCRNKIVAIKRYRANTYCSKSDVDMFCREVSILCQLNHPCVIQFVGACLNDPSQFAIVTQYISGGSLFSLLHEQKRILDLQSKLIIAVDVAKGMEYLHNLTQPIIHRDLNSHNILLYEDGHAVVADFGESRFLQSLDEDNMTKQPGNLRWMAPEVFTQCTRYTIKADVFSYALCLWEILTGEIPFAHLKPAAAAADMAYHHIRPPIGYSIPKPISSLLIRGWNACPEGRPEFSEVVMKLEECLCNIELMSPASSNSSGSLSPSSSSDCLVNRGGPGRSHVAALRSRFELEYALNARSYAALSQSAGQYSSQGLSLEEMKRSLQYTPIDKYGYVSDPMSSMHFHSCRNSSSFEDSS

[37] = biological target: Ephrin type-B receptor 6 (Homo sapiens) (UniProt O15197)
[38] = test system: Epidermal growth factor receptor (Homo sapiens), P00533 [UNDEFINED MUTATION]
[39] = biological target: Serine/threonine-protein kinase Chk2 (Homo sapiens) (UniProt O96017)
[40] = biological target: Leukocyte tyrosine kinase receptor (Homo sapiens) (UniProt P29376)
[41] = biological target: Serine/threonine-protein kinase MARK1 (Homo sapiens) (UniProt Q9P0L2)
[42] = biological target: Ribosomal protein S6 kinase alpha-1 (Homo sapiens) (UniProt Q15418)
Ribosomal protein S6 kinase alpha-1 (Homo sapiens), sequence (Q15418 whole entry): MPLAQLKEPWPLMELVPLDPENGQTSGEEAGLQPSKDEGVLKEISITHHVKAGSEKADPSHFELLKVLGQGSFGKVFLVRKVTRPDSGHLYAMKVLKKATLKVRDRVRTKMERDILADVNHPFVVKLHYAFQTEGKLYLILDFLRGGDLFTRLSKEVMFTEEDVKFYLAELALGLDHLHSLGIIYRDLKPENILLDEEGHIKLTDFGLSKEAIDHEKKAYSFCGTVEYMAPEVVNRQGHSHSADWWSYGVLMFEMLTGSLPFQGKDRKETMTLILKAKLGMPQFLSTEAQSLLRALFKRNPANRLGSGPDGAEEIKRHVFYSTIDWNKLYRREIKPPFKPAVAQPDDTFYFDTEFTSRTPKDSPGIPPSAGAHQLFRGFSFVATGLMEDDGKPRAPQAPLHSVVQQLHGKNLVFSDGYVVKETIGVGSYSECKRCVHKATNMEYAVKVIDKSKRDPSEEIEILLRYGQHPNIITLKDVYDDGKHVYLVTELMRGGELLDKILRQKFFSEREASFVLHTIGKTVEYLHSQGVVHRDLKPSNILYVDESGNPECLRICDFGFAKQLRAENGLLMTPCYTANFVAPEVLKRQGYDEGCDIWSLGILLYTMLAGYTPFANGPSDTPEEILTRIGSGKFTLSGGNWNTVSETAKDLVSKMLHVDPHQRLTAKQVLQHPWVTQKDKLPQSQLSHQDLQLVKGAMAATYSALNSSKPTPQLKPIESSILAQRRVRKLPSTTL

[43] = biological target: Testis-specific serine/threonine-protein kinase 3 (Homo sapiens) (UniProt Q96PN8)
[44] = biological target: Tyrosine-protein kinase JAK3 (Homo sapiens) (UniProt P52333)
[45] = biological target: Proto-oncogene tyrosine-protein kinase Src (Homo sapiens) (UniProt P12931)

Measured: residual activity

COc1cccc(CNC(=O)c2nc3scc(COCc4ccc(C(=O)O)cc4)c3c(=O)[nH]2)c1 [T-26c]
inactive: [1] 92% | [2] 67.1% | [3] 100% | [4] 100% | [5] 100% | [6] 76% | [7] 83.1% | [8] 86.8% | [9] 94.6% | [10] 90.9% | [11] 74.9% | [12] 100% | [13] 83.8% | [14] 100% | [15] 70.4% | [16] 97.2% | [17] 100% | [18] 97.6% | [19] 89.5% | [20] 94.8% | [21] 64.3% | [22] 100% | [23] 73.4% | [24] 91.1% | [25] 56.7% | [26] 73.2% | [27] 93.1% | [28] 87.7% | [29] 87.4% | [30] 83.1% | [31] 100% | [32] 100% | [33] 88% | [34] 100% | [35] 89.5% | [36] 95.5% | [37] 100% | [38] 76% | [39] 92% | [40] 70.6% | [41] 96.7% | [42] 100% | [43] 81.4% | [44] 78.4% | [45] 100%
